In PubChem BioAssay (NCI):
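Compound exposure: 48 hours, 5 concentrations, 96-well plates. GI50 marks 50% less growth. At the TGI there is no net growth.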

Key:
Test in all cases: DTP human tumour cell line panel, 48 h
HL-60(TB) leukemia = test system: HL-60(TB) leukemia
HT29 colon = test system: HT29 colon
MOLT-4 leukemia = test system: MOLT-4 leukemia
OVCAR-3 ovarian = test system: OVCAR-3 ovarian
OVCAR-8 ovarian = test system: OVCAR-8 ovarian
RXF 393 renal = test system: RXF 393 renal
SNB-19 CNS = test system: SNB-19 CNS
SR leukemia = test system: SR leukemia
SW-620 colon = test system: SW-620 colon
BT-549 breast = test system: BT-549 breast

| Structure (SMILES) | TGI (HL-60(TB) leukemia) [µM] | TGI (HT29 colon) [µM] | TGI (MOLT-4 leukemia) [µM] | TGI (OVCAR-3 ovarian) [µM] | TGI (OVCAR-8 ovarian) [µM] | TGI (RXF 393 renal) [µM] | TGI (SNB-19 CNS) [µM] | TGI (SR leukemia) [µM] | TGI (SW-620 colon) [µM] | GI50 (BT-549 breast) [µM] | GI50 (HL-60(TB) leukemia) [µM] | GI50 (HT29 colon) [µM] | GI50 (MOLT-4 leukemia) [µM] | GI50 (OVCAR-3 ovarian) [µM] | GI50 (OVCAR-8 ovarian) [µM] | GI50 (SNB-19 CNS) [µM] | GI50 (SR leukemia) [µM] | GI50 (SW-620 colon) [µM] | GI50 (RXF 393 renal) [µM] | TGI (BT-549 breast) [µM] |
| --- | --- | --- | --- | --- | --- | --- | --- | --- | --- | --- | --- | --- | --- | --- | --- | --- | --- | --- | --- | --- |
| CC(=O)c1ccc(-c2ccc(C(C)=O)s2)s1 | > 100 | > 100 | > 100 | > 100 | > 100 | > 100 | > 100 | > 100 | > 100 | – | – | – | – | – | – | – | – | – | – | – |
| COc1ccc(S(=O)(=O)Nc2c(/C=C\c3cc(OC)c(OC)c(OC)c3)ccc(OC)c2O)cc1OC | > 100 | > 100 | > 100 | – | > 100 | – | > 100 | > 75.9 | > 100 | 0.256 | 0.338 | 0.498 | 0.44 | 0.21 | 0.416 | 0.506 | 0.0661 | 0.167 | – | – |
| OC(c1cc2c(Cl)cc(Cl)cc2c2cc(C(F)(F)F)ccc12)C1CCCCN1 (stereo not drawn) | 3.71 | 3.71 | – | 3.52 | – | 3.12 | – | 3.95 | 3.64 | – | 1.85 | 1.97 | – | 1.91 | – | – | 1.49 | 1.76 | 1.61 | – |
| O=C1C2Cc3ccccc3CN2C(=O)N1CCN1CCOCC1 (stereo not drawn) | > 100 | – | > 100 | > 100 | > 100 | – | > 100 | > 100 | > 100 | – | – | – | – | – | – | – | – | – | – | – |
| COc1ccc2c(c1)[n+](=O)c(C(=O)C/C(=N\NC(=O)C[N+](C)(C)C)C(=O)Nc1cc(Cl)ccc1Cl)c(C)n2O | > 100 | > 100 | > 100 | > 100 | > 100 | > 100 | > 100 | > 100 | > 100 | – | – | – | – | – | – | – | – | – | – | – |
| Cn1c(=O)ccc2cc(C(=O)c3ccccc3)ccc21 | > 100 | > 100 | > 100 | > 100 | > 100 | – | > 100 | – | > 100 | – | – | – | – | – | – | – | – | – | – | – |
| C=C1[C@@H]2CCC(C)(C)[C@H]1CCC(=O)[C@@H]2C(=O)OC | > 100 | > 100 | > 100 | > 100 | > 100 | > 100 | > 100 | > 100 | > 100 | – | – | – | – | – | – | – | – | – | – | – |
| CCN(CC)[C@@H]1c2cc3c(cc2C(c2cc(OC)c(O)c(OC)c2)C2C(=O)CO[C@@H]21)OCO3 (stereo partly drawn) | > 100 | > 100 | > 100 | – | > 100 | > 100 | – | > 100 | > 100 | – | – | – | – | – | – | – | – | – | – | – |
| COc1cc(/C=C/C(=O)c2ccc(SC)cc2)cc(OC)c1OC | – | 24.4 | 8.65 | 23.8 | 5.85 | 7.01 | 26.4 | > 100 | 21.6 | 10.1 | – | 4.15 | 3.14 | 10.9 | 2.44 | 12.6 | 3.56 | 6.89 | 2.62 | 24.6 |
| COC(=O)c1cccc(COc2ccc([N+](=O)[O-])cc2Cl)c1 | – | > 100 | > 100 | > 100 | > 100 | > 100 | > 100 | > 100 | > 100 | – | – | – | – | – | – | – | – | – | – | > 100 |
